Read-outs that look alike come from different tables or passages of the source.
Experiments:
[1] = pH 1.2
Procedure: (§1) 20 mg of the Alectinib salt was mixed 10 ml of a mixture of buffer pH 1.2 and 4% Triton X-100. The mixture was placed into a stirring carousel at temperature +37° C. and 100 rpm. After 1 hour and 4 hours about 1 mL of each sample was taken and filtered through a 0.45 μm filter into a vial. Then each sample was diluted with Solvent solution to get signal of absorbance ≤1 at 265 nm, transferred into a vial and measured by HPLC method.
(§2) 20 mg of the Alectinib salt was mixed 10 ml of a mixture of buffer pH 1.2 and 4% Triton X-100. The mixture was placed into a stirring carousel at temperature+37° C. and 100 rpm. After 1 hour and 4 hours about 1 mL of each sample was taken and filtered through a 0.45 μm filter into a vial. Then each sample was diluted with Solvent solution to get signal of absorbance≤1 at 265 nm, transferred into a vial and measured by HPLC method.

[2] = Solubilities of prepared salts (buffer pH 1.2 with 4% Triton X-100, HPLC); settings: 100 rpm
Procedure: as §1, §2

[3] = Example 10, 20 mg salt in 10 ml buffer pH 1.2 and 4% Triton X-100, +37° C.
[4] = Example 18, 20 mg salt in 10 ml buffer pH 1.2 and 4% Triton X-100, +37° C.
[5] = Example 28, 20 mg salt in 10 ml buffer pH 1.2 and 4% Triton X-100, +37° C.
[6] = Example 18, 20 mg salt in 10 ml buffer pH 1.2 and 4% Triton X-100, +37° C., maleate salt
[7] = Example 10, 20 mg salt in 10 ml buffer pH 1.2 and 4% Triton X-100, +37° C., acetate salt

Compound | Solubility after 1 hour [1] | Solubility after 1 hour [2, 4] | also measured
CCc1cc2c(cc1N1CCC(N3CCOCC3)CC1)C(C)(C)c1[nH]c3cc(C#N)ccc3c1C2=O.CS(=O)(=O)O [Methane sulfonate salt, Form 12, Alectinib methane sulfonate salt] | 1.35 mg/mL |  | 
CCc1cc2c(cc1N1CCC(N3CCOCC3)CC1)C(C)(C)c1[nH]c3cc(C#N)ccc3c1C2=O.CS(=O)(=O)O [Methane sulfonate salt, Form 13, Alectinib methane sulfonate salt] | 1.30 mg/mL |  | 
CCc1cc2c(cc1N1CCC(N3CCOCC3)CC1)C(C)(C)c1[nH]c3cc(C#N)ccc3c1C2=O.Cl [HCl, reference compound] |  | 0.37 mg/mL | Solubility after 1 hour [2, 3]: 0.37 mg/mL; Solubility after 1 hour [2, 5]: 0.37 mg/mL
CCc1cc2c(cc1N1CCC(N3CCOCC3)CC1)C(C)(C)c1[nH]c3cc(C#N)ccc3c1C2=O.O=C(O)C=CC(=O)O [Hydrogen maleate salt, Form 2, Alectinib hydrogen maleate salt] |  |  | Solubility after 1 hour [2, 6]: 1.26 mg/mL
CCc1cc2c(cc1N1CCC(N3CCOCC3)CC1)C(C)(C)c1[nH]c3cc(C#N)ccc3c1C2=O.O=C(O)C=CC(=O)O [Fumaric acid (1:1) salt, Form 6, Alectinib fumaric acid (1:1) salt] |  | 1.22 mg/mL | 
CCc1cc2c(cc1N1CCC(N3CCOCC3)CC1)C(C)(C)c1[nH]c3cc(C#N)ccc3c1C2=O.O=C(O)C=CC(=O)O [Fumaric acid (1:1) salt, Form 2, Alectinib fumaric acid (1:1) salt] |  | 1.30 mg/mL | 
CCc1cc2c(cc1N1CCC(N3CCOCC3)CC1)C(C)(C)c1[nH]c3cc(C#N)ccc3c1C2=O.CS(=O)(=O)O [Methane sulfonate salt, Form 14, Alectinib methane sulfonate salt] | 1.32 mg/mL |  | 
Alectinib acetate salt [Acetate, Form 4] |  |  | Solubility after 1 hour [2, 7]: 1.22 mg/mL
Alectinib acetate salt [Acetate, Form 2] |  |  | Solubility after 1 hour [2, 7]: 0.87 mg/mL
CCc1cc2c(cc1N1CCC(N3CCOCC3)CC1)C(C)(C)c1[nH]c3cc(C#N)ccc3c1C2=O.CCc1cc2c(cc1N1CCC(N3CCOCC3)CC1)C(C)(C)c1[nH]c3cc(C#N)ccc3c1C2=O.O=C(O)C=CC(=O)O [Fumaric acid (2:1) salt, Form 2, Alectinib fumaric acid (2:1) salt] |  | 1.23 mg/mL | 
Alectinib tartrate salt [Tartrate, Form 8] |  | 1.23 mg/mL | 
CCc1cc2c(cc1N1CCC(N3CCOCC3)CC1)C(C)(C)c1[nH]c3cc(C#N)ccc3c1C2=O.CS(=O)(=O)O [Methane sulfonate salt, Form 15, Alectinib methane sulfonate salt] | 1.19 mg/mL |  | 
CCc1cc2c(cc1N1CCC(N3CCOCC3)CC1)C(C)(C)c1[nH]c3cc(C#N)ccc3c1C2=O.O=C(O)C=CC(=O)O [Hydrogen maleate salt, Form 1, Alectinib hydrogen maleate salt] |  |  | Solubility after 1 hour [2, 6]: 2.38 mg/mL
CCc1cc2c(cc1N1CCC(N3CCOCC3)CC1)C(C)(C)c1[nH]c3cc(C#N)ccc3c1C2=O.CS(=O)(=O)O [Methane sulfonate salt, Form 3, Alectinib methane sulfonate salt] | 1.21 mg/mL |  | 
Tosylate [reference compound] |  | 0.5 mg/mL | Solubility after 1 hour [2, 3]: 0.5 mg/mL; Solubility after 1 hour [2, 5]: 0.5 mg/mL

Reference: patent US20250236603A1, “SOLID FORMS OF ALECTINIB AND ALECTINIB SALTS” (Synthon B.V., priority 2022, published 2025)
